Where two headings read alike, the source gives them in different places.

Among the data in US20220002314A1 (priority 2018, published 2022) are Ki values, retold here.

For experiment [1], the target named is Human α2δ-1 subunit of Cav2.2 calcium channel (Homo sapiens, UniProt P54289). In words: biochemical. The experiment is classed as binding.
For the next experiment, the target named is Human μ-opioid receptor (Homo sapiens, UniProt P35372). In words: biochemical. The experiment is classed as binding.
Sequence of Human μ-opioid receptor (P35372 whole entry): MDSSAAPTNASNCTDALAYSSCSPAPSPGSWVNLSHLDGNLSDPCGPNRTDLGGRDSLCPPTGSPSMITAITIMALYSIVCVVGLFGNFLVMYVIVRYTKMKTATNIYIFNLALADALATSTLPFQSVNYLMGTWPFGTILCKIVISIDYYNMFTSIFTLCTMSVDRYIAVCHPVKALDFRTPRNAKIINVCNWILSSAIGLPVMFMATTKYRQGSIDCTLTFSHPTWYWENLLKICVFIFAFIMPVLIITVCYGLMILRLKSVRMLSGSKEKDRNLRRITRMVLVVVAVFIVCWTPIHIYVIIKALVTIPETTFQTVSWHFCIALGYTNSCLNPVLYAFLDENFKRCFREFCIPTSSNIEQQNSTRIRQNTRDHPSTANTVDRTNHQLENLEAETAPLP

Sequence of Human α2δ-1 subunit of Cav2.2 calcium channel (P54289 25-1103): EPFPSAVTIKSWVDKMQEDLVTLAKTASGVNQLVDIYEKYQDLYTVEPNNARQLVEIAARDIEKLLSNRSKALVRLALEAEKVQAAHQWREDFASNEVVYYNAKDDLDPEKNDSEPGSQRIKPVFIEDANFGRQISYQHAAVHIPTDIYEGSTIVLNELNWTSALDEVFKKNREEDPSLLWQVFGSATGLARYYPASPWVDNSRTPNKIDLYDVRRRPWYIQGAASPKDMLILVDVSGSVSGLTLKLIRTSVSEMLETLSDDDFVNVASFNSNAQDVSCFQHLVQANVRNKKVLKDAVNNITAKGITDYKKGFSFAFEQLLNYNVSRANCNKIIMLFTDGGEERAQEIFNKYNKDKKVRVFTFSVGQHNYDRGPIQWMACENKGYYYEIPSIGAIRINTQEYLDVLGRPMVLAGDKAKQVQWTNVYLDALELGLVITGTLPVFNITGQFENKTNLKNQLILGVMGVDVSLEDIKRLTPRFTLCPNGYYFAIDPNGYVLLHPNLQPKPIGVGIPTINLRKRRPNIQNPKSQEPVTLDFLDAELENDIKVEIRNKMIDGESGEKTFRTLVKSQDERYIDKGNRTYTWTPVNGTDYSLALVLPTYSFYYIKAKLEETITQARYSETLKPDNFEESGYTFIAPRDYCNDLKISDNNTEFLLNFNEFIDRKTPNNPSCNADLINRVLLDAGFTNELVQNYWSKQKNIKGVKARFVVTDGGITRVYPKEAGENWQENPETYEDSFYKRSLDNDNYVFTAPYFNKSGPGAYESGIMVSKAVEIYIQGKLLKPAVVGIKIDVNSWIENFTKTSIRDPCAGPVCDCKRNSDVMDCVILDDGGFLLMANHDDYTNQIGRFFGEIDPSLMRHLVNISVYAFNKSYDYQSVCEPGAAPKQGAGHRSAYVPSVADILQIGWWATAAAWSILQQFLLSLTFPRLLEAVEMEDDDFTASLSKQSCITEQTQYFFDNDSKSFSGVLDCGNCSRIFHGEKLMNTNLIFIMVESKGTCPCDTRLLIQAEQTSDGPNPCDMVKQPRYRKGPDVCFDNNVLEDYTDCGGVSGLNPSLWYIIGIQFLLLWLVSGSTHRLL

Take `CCC[C@H](c1nc2ccc(O)cc2c(=O)n1CC)N1C[C@@H](C)N[C@@H](C)C1` [Example 35, 2-((R)-1-((3S,5R)-3,5-Dimethylpiperazin-1-yl)butyl)-3-ethyl-6-hydroxyquinazolin-4(3H)-one]: the Ki was less than 500 nM in experiment [1] and more than 500 nM at Human μ-opioid receptor.
Taken in the same sequence, the figures for `CCC[C@@H](c1nc2ccc(O)cc2c(=O)n1CC)N1C[C@@H](C)N[C@@H](C)C1` [Example 36, 2-((S)-1-((3S,5R)-3,5-dimethylpiperazin-1-yl)butyl)-3-ethyl-6-hydroxyquinazolin-4(3H)-one] were 500 to 5000 nM and more than 500 nM.
For `CCC[C@@H](c1nc2c(F)cc(OC)cc2c(=O)n1CC)N1CCNCC1` [Example 37, (S)-3-Ethyl-8-fluoro-6-methoxy-2-(1-(piperazin-1-yl)butyl)quinazolin-4(3H)-one] the same measures were more than 5000 nM and more than 500 nM.
Taken in the same sequence, the figures for `CCC[C@H](c1nc2c(F)cc(OC)cc2c(=O)n1CC)N1CCNCC1` [Example 38, (R)-3-ethyl-8-fluoro-6-methoxy-2-(1-(piperazin-1-yl)butyl)quinazolin-4(3H)-one] were less than 500 nM and 100 to 500 nM.
Regarding `CCC[C@@H](c1nc2c(F)cc(OC)c(Br)c2c(=O)n1CC)N1CCNCC1` [Example 39, (S)-5-Bromo-3-ethyl-8-fluoro-6-methoxy-2-(1-(piperazin-1-yl)butyl)quinazolin-4(3H)-one], the Ki is more than 5000 nM in experiment [1] (read-out: α2δ-1 binding) and more than 500 nM at Human μ-opioid receptor (read-out: μ-binding).
`CCC[C@H](c1nc2c(F)cc(OC)c(Br)c2c(=O)n1CC)N1CCNCC1` [Example 40, (R)-5-bromo-3-ethyl-8-fluoro-6-methoxy-2-(1-(piperazin-1-yl)butyl)quinazolin-4(3H)-one]: the Ki in experiment [1] (read-out: α2δ-1 binding) was 500 to 5000 nM; at Human μ-opioid receptor (read-out: μ-binding), more than 500 nM.
Regarding `CCC[C@H](c1nc2ccc(Br)cc2c(=O)n1C)N1CCN[C@@H](C)C1` [Example 41, 6-Bromo-3-methyl-2-((R)-1-((S)-3-methylpiperazin-1-yl)butyl)quinazolin-4(3H)-one], the figures for the Ki (in experiment [1]; on Human μ-opioid receptor) were less than 500 nM and 100 to 500 nM, respectively.
Take `CCC[C@@H](c1nc2ccc(Br)cc2c(=O)n1C)N1CCN[C@@H](C)C1` [Example 42, 6-bromo-3-methyl-2-((S)-1-((S)-3-methylpiperazin-1-yl)butyl)quinazolin-4(3H)-one]: the Ki in experiment [1] is more than 5000 nM; at Human μ-opioid receptor it was more than 500 nM.
For `CCC[C@H](c1nc2ccccc2c(=O)n1CC)N1CCN[C@@H](C)C1` [Example 43, 3-Ethyl-2-((R)-1-((S)-3-methylpiperazin-1-yl)butyl)quinazolin-4(3H)-one] the same measures were less than 500 nM and more than 500 nM.
Taken in the same sequence, the figures for `CCC[C@@H](c1nc2ccccc2c(=O)n1CC)N1CCN[C@@H](C)C1` [Example 44, 3-ethyl-2-((S)-1-((S)-3-methylpiperazin-1-yl)butyl)quinazolin-4(3H)-one] were more than 5000 nM and more than 500 nM.
Taken in the same sequence, the figures for `CCC[C@@H](c1nc2c(F)cc(OC)cc2c(=O)n1CC)N1CCN[C@@H](C)C1` [Example 45, 3-Ethyl-8-fluoro-6-methoxy-2-((S)-1-((S)-3-methylpiperazin-1-yl)butyl)quinazolin-4(3H)-one] were more than 5000 nM and more than 500 nM.
With `CCC[C@H](c1nc2c(F)cc(OC)cc2c(=O)n1CC)N1CCN[C@@H](C)C1` [Example 46, 3-ethyl-8-fluoro-6-methoxy-2-((R)-1-((S)-3-methylpiperazin-1-yl)butyl)quinazolin-4(3H)-one], the Ki is less than 500 nM in experiment [1] and 100 to 500 nM at Human μ-opioid receptor.
For `CCC[C@H](c1nc2c(F)cc(Br)cc2c(=O)n1CC)N1CCN[C@H](C)C1` [Example 47, 6-Bromo-3-ethyl-8-fluoro-2-((R)-1-((R)-3-methylpiperazin-1-yl)butyl)quinazolin-4(3H)-one] the same measures were less than 500 nM and more than 500 nM.
Taken in the same sequence, the figures for `CCC[C@@H](c1nc2c(F)cc(Br)cc2c(=O)n1CC)N1CCN[C@H](C)C1` [Example 48, 6-bromo-3-ethyl-8-fluoro-2-((S)-1-((R)-3-methylpiperazin-1-yl)butyl)quinazolin-4(3H)-one] were more than 5000 nM and more than 500 nM.
With `CCC[C@H](c1nc2cc(Cl)c(Cl)cc2c(=O)n1CC)N1CCN[C@@H](C)C1` [Example 49, 6,7-Dichloro-3-ethyl-2-((R)-1-((S)-3-methylpiperazin-1-yl)butyl)quinazolin-4(3H)-one], the Ki in experiment [1] is less than 500 nM; on Human μ-opioid receptor, 100 to 500 nM.
Taken in the same sequence, the figures for `CCC[C@@H](c1nc2cc(Cl)c(Cl)cc2c(=O)n1CC)N1CCN[C@@H](C)C1` [Example 50, 6,7-dichloro-3-ethyl-2-((S)-1-((S)-3-methylpiperazin-1-yl)butyl)quinazolin-4(3H)-one] were more than 5000 nM and more than 500 nM.
Regarding `CCC[C@H](c1nc2c(F)cc(Br)cc2c(=O)n1CC)N1CCN[C@@H](C)C1` [Example 51, 6-Bromo-3-ethyl-8-fluoro-2-((R)-1-((S)-3-methylpiperazin-1-yl)butyl)quinazolin-4(3H)-one], the Ki in experiment [1] is less than 500 nM; at Human μ-opioid receptor it was 100 to 500 nM.
For `CCC[C@@H](c1nc2c(F)cc(Br)cc2c(=O)n1CC)N1CCN[C@@H](C)C1` [Example 52, 6-bromo-3-ethyl-8-fluoro-2-((S)-1-((S)-3-methylpiperazin-1-yl)butyl)quinazolin-4(3H)-one] the same measures were more than 5000 nM and more than 500 nM.
For the compound `CCC[C@H](c1nc2cc(F)c(Cl)cc2c(=O)n1CC)N1CCN[C@@H](C)C1` [Example 53, 6-Chloro-3-ethyl-7-fluoro-2-((R)-1-((S)-3-methylpiperazin-1-yl)butyl)quinazolin-4(3H)-one], the Ki in experiment [1] is less than 500 nM; at Human μ-opioid receptor, 100 to 500 nM.
Taken in the same sequence, the figures for `CCC[C@@H](c1nc2cc(F)c(Cl)cc2c(=O)n1CC)N1CCN[C@@H](C)C1` [Example 54, 6-chloro-3-ethyl-7-fluoro-2-((S)-1-((S)-3-methylpiperazin-1-yl)butyl)quinazolin-4(3H)-one] were more than 5000 nM and more than 500 nM.
Take `CCC[C@H](c1nc2ccc(Br)cc2c(=O)n1CC)N1CCN[C@H](CF)C1` [Example 55, 6-Bromo-3-ethyl-2-((R)-1-((S)-3-(fluoromethyl)piperazin-1-yl)butyl)quinazolin-4(3H)-one]: the Ki in experiment [1] is less than 500 nM; at Human μ-opioid receptor, more than 500 nM.
Regarding `CCC[C@@H](c1nc2ccc(Br)cc2c(=O)n1CC)N1CCN[C@@H](CF)C1` [Example 56, 6-bromo-3-ethyl-2-((S)-1-((R)-3-(fluoromethyl)piperazin-1-yl)butyl)quinazolin-4(3H)-one], the Ki in experiment [1] is more than 5000 nM; at Human μ-opioid receptor, more than 500 nM.
Taken in the same sequence, the figures for `CCC[C@@H](c1nc2ccc(Br)cc2c(=O)n1CC)N1CCN[C@H](CF)C1` [Example 57, 6-bromo-3-ethyl-2-((S)-1-((S)-3-(fluoromethyl)piperazin-1-yl)butyl)quinazolin-4(3H)-one] were less than 500 nM and more than 500 nM.
For the compound `CCC[C@H](c1nc2ccc(Br)cc2c(=O)n1CC)N1CCN[C@H](CO)C1` [Example 58, 6-Bromo-3-ethyl-2-((R)-1-((S)-3-(hydroxymethyl)piperazin-1-yl)butyl)quinazolin-4(3H)-one], the Ki in experiment [1] is less than 500 nM; at Human μ-opioid receptor, more than 500 nM.
Taken in the same sequence, the figures for `CCC[C@@H](c1nc2ccc(Br)cc2c(=O)n1CC)N1CCN[C@H](CO)C1` [Example 59, 6-bromo-3-ethyl-2-((S)-1-((S)-3-(hydroxymethyl)piperazin-1-yl)butyl)quinazolin-4(3H)-one] were more than 5000 nM and more than 500 nM.
Taken in the same sequence, the figures for `CCC[C@H](c1nc2ccc(Br)cc2c(=O)n1CC)N1CCN[C@@H](CO)C1` [Example 60, 6-bromo-3-ethyl-2-((R)-1-((R)-3-(hydroxymethyl)piperazin-1-yl)butyl)quinazolin-4(3H)-one] were less than 500 nM and more than 500 nM.
On to `CCC[C@@H](c1nc2ccc(Br)cc2c(=O)n1CC)N1CCN[C@@H](CO)C1` [Example 61, 6-bromo-3-ethyl-2-((S)-1-((R)-3-(hydroxymethyl)piperazin-1-yl)butyl)quinazolin-4(3H)-one], for which the Ki in experiment [1] was more than 5000 nM; at Human μ-opioid receptor it was more than 500 nM.
`CCC[C@H](c1nc2cc(F)c(Br)cc2c(=O)n1C)N1CCN[C@@H](C)C1` [Example 62, 6-Bromo-7-fluoro-3-methyl-2-((R)-1-((S)-3-methylpiperazin-1-yl)butyl)quinazolin-4(3H)-one]: the Ki is less than 500 nM in experiment [1] and 100 to 500 nM at Human μ-opioid receptor.
Taken in the same sequence, the figures for `CCC[C@@H](c1nc2cc(F)c(Br)cc2c(=O)n1C)N1CCN[C@@H](C)C1` [Example 63, 6-bromo-7-fluoro-3-methyl-2-((S)-1-((S)-3-methylpiperazin-1-yl)butyl)quinazolin-4(3H)-one] were more than 5000 nM and more than 500 nM.
For the compound `CCC[C@H](c1nc2ccncc2c(=O)n1CC)N1CCN[C@H](C)C1` [Example 64, 3-Ethyl-2-((R)-1-((R)-3-methylpiperazin-1-yl)butyl)pyrido[4,3-d]pyrimidin-4(3H)-one], the results for the Ki (in experiment [1]; at Human μ-opioid receptor) were less than 500 nM and more than 500 nM, respectively.
Taken in the same sequence, the figures for `CCC[C@@H](c1nc2ccncc2c(=O)n1CC)N1CCN[C@H](C)C1` [Example 65, 3-ethyl-2-((S)-1-((R)-3-methylpiperazin-1-yl)butyl)pyrido[4,3-d]pyrimidin-4(3H)-one] were more than 5000 nM and more than 500 nM.
Turning to `CCC[C@H](c1nc2ccncc2c(=O)n1CC)N1CCN[C@@H](C)C1` [Example 66, 3-Ethyl-2-((R)-1-((S)-3-methylpiperazin-1-yl)butyl)pyrido[4,3-d]pyrimidin-4(3H)-one], the Ki in experiment [1] was less than 500 nM; on Human μ-opioid receptor, more than 500 nM.
Taken in the same sequence, the figures for `CCC[C@@H](c1nc2ccncc2c(=O)n1CC)N1CCN[C@@H](C)C1` [Example 67, 3-ethyl-2-((S)-1-((S)-3-methylpiperazin-1-yl)butyl)pyrido[4,3-d]pyrimidin-4(3H)-one] were more than 5000 nM and more than 500 nM.
